From US7951407B2, “Ruminant feed containing N-carbamoyl glutamate” (University of Maryland, priority 2003, dated 2011)

What was measured:
[1] = test system: duodenal mucosal cells (DMC); assay: Net urea production by isolated duodenal mucosal cells incubated with ornithine-urea cycle substrate intermediates; assay type: cell-based, sheep; design: net urea production: dose or concentration left out as unconfirmed
From the text: Ruminal epithelial cells (REC) and duodenal mucosal cells (DMC) were harvested from four growing Polypay ram lambs (33.1 plus/minus 4.8 kg body weight) fed a pelleted diet comprised of 55% forage (alfalfa hay) and 45% concentrate (dry ground corn. soybean meal, and premix of minerals and vitamins) ad libitum for at least two weeks before slaughter. All animal procedures were approved by the Beltsville Agricultural Research Center Institutional Animal Care and Use Committee (protocol # 02-008). Gut cells were isolated separately for each sheep following the procedures described by Baldwin and McLeod and Oba et al. Cell viability averaged 73.1% for REC and 82.4% for DMC. […] Urea concentration was determined by isotope dilution with gas chromatography-mass spectrometry (HP6890 coupled to an HP5973 Mass Selective Detector, Agilent, Palo Alto, Calif.) essentially according to the known method of Calder et al. See Calder, A. G., Rapid Commun. […] Net urea production was calculated by subtracting background urea present at time 0 (Control) from concentrations after 90-min incubation. Data were analyzed separately for REC and DMC using the Proc Mixed procedure of SAS (SAS Inc., Cary, N.C.) with fixed effect of VFA type, substrate combination, their interactions, and random effect of animals in the model.

[2] = test system: Ruminal epithelial cells (REC); assay: Net urea production by isolated ruminal epithelial cells incubated with ornithine-urea cycle substrate intermediates; assay type: cell-based, sheep; design: net urea production: dose or concentration left out as unconfirmed
From the text: Ruminal epithelial cells (REC) and duodenal mucosal cells (DMC) were harvested from four growing Polypay ram lambs (33.1 plus/minus 4.8 kg body weight) fed a pelleted diet comprised of 55% forage (alfalfa hay) and 45% concentrate (dry ground corn. soybean meal, and premix of minerals and vitamins) ad libitum for at least two weeks before slaughter. All animal procedures were approved by the Beltsville Agricultural Research Center Institutional Animal Care and Use Committee (protocol # 02-008). Gut cells were isolated separately for each sheep following the procedures described by Baldwin and McLeod and Oba et al. Cell viability averaged 73.1% for REC and 82.4% for DMC. […] N-carbamoyl glutamate is a stable analog of […] stimulator of carbamoyl phosphate synthetase. Treatments were arranged in a 2×4 factorial design, and performed in triplicate incubations for each sheep. […] Krebs-Ringer plus 24 mM HEPES and 0.12 M sodium bicarbonate) was oxygenated with O2:CO2 (95:5) and the pH adjusted to 7.4. Incubations were initiated by addition of 0.5 ml of cell suspension (1×10^7 viable cells) to freshly gassed (20 s under 95:5 O2:CO2) media, and flasks were placed into a reciprocal action shaking water bath at 37° C. After 90 min, 0.2 ml of concentrated HClO4 was injected into the flasks to terminate the incubation, followed by addition of 0.3 ml of 5.8 M K2CO3 to neutralize the media. […] See Lobley, G. E. et al., Br. J. Nutr. […] Urea concentration was determined by isotope dilution with gas chromatography-mass spectrometry (HP6890 coupled to an HP5973 Mass Selective Detector, Agilent, Palo Alto, Calif.) essentially according to the known method of Calder et al. See Calder, A. G., Rapid Commun. […] Net urea production was calculated by subtracting background urea present at time 0 (Control) from concentrations after 90-min incubation. Data were analyzed separately for REC and DMC using the Proc Mixed procedure of SAS (SAS Inc., Cary, N.C.) with fixed effect of VFA type, substrate combination, their interactions, and random effect of animals in the model.

SMILES | net urea production ([1]; 90 min incubation in media, background urea at time 0 subtracted) | net urea production by REC relative to DMC ([2]; REC versus DMC in the presence of arginine) [fold] | net urea production ([2]; REC, 90 min incubation in media, background urea at time 0 subtracted) | effect of N-carbamoyl glutamate addition on urea synthesis ([1]; AspONG versus AspON (P<0.001)) | effect of N-carbamoyl glutamate addition on urea synthesis ([2]; REC, AspONG versus AspON (P=0.11))
N=C(N)NCCC[C@H](N)C(=O)O [Arg, arginine] | 2.1±0.7 nmoles·10^6 cells^−1 90 min^−1 | 25 | 54.5±6.3 nmoles·10^6 cells^−1 90 min^−1 | – | –
NC(=O)N[C@@H](CCC(=O)O)C(=O)O [N-carbamoyl glutamate] | – | – | – | stimulatory effect | stimulatory effect
